Laboratory results published in patent publication US20240228467A1, “INDIRUBIN COMPOUNDS AND METHODS THEREOF” (JAWAHARLAL NEHRU CENTRE FOR ADVANCED SCIENTIFIC RESEARCH, priority 2021, published 2024).

Tested on: HeLa and/or SH-SY5Y cells
Assay: Autophagic flux, RFP-EGFP-LC3 assay (fluorescent analysis, FIG. 1)
Type: cell-based
Conditions: compared to the growth media control
Text: Autophagic flux refers to a measure of autophagic degradation activity. FIG. 1 depicts the fluorescent analysis of the autophagic flux in the presence of 6-bromoindirubin oxime (6-BIO), 6-MIO, and compounds of Formula I—compounds ‘a’ and ‘m’. FIG. 1 depicts that both autophagosomes and autolysosomes are increased with the compounds of Formula I when compared to the growth media control.
The assays were essentially performed as follows: RFP-EGFP-LC3 assay: sub-confluent HeLa and/or SH-SY5Y cells were seeded into 60 mm cell culture dishes, then transfected with ptf LC3 construct and/or siRNA and allowed to express for 48 h. Cells were trypsinized, seeded again on poly-D-lysine coated cover slips in a 12 or 24 well plates and allowed to attach. After appropriate treatments, the coverslips containing cells were processed for imaging. For immunofluorescent antibody staining, the cover slips were incubated in primary antibody at 4° C. for overnight followed by secondary antibody incubation at room temperature. For imaging the mammalian cells, after appropriate treatments, coverslips containing cells were fixed using 4% paraformaldehyde (PFA; Sigma) and then permeabilized using Triton X-100 (0.2%, HiMedia). Coverslips were mounted on slide using antifade, Vectashield mounting medium (Vector Laboratories). Images were acquired using DeltaVision Elite widefieldmicroscope (API, GE) with following filters: FITC (490/20 and 529/38), TRITC (542/27 and 594/45) and Cy5 (632/22 and 676/34). Acquired images were processed using DV softWoRX software. In this standard assay, the autophagosomes would appear as yellow whereas autolysosomes would be red as EGFP gets quenched at lysosomal acidic pH6.

| SMILES | autolysosomes | autophagosomes |
| --- | --- | --- |
| O=C1Nc2cc(Br)ccc2/C1=C1/Nc2ccccc2/C1=N\O.[Li] [a, (2Z,3E)-6′-bromo-3-(hydroxyimino)-[2,3′-biindolinylidene]-2′-one lithium salt] | increased | increased |
| O=C1Nc2cc(Br)ccc2/C1=C1/Nc2ccccc2/C1=N\OCCO [m, (2Z,3E)-6′-bromo 3-((2-hydroxyethoxy)imino)-[2,3′-biindolinylidene]-2′-one] | increased | increased |
